Patent US6117875A, “Pyrido (2,3-B) pyrazine derivatives” (Fujisawa Pharmaceutical Co., Ltd., priority 1995, dated 2000)

Columns and labels:
[1] = target: U937 phosphodiesterase IV (PDE IV); assay: Inhibition of U937 phosphodiesterase IV (PDE IV); assay type: biochemical; settings: PDE IV preparation from U937 cells, [3H]-cAMP, 10 μM CI-930 (PDE III inhibitor) present, 30°C, pH 8.0
Protocol: Harvested U937 was freezed in -80pbC. and throwed to destroy the cell body. The pellet of destroyed cell was washed by Phosphate-buffered saline (PBS).
The washed cell pellet was homogenized with Dounce homogenizer (20 strokes) in homogenizing buffer (0.5% deoxycholate [DOC], 5 mM 2-mercaptoethanol, 1 μM leupeptin, 100 μM PMSF, 20 μM p-tosyl-L-lysine-chloromethyl ketone [TLCK] in PBS). The homogenate was centrifuged at 100,000 g×90 minutes (4pbC.) and the supernatant containing PDE IV activity was dialyzed against dialysis buffer, which was the same component as homogenizing buffer without DOC. The dialyzed supernatant of homogenate was stored in freezer (-80pbC.) as PDE IV enzyme preparation.
Enzyme preparation was diluted in assay buffer (10 mM Tris-HCl, 5 mM MgCl, 1 mM 2-Mercaptoethanol [pH 8.0]). In advance the rate of dilution was choosen every new lot of homogenizing preparation. For blank, a part of the enzyme preparation was boiled for 10 minutes. […]
The reaction tube was preincubated in a water bath (30pbC.) for 5 minutes, then 100 μl [^3 H]-cAMP (37.0 MBq/ml [^3 H]-cAMP: 4 μM cold cAMP=1:800) was added thereto. […] The mixture was centrifuged at 1000 rpm×5 minutes, and then 500 μl of the supernatant was added to 10 ml scintillation fluid in appropriate vial, vortexed, and counted for [^3 H].
The inhibitory activity was calculated according to the following equation: [formula]

[2] = system: TNF-α production in human mononuclear cells; assay: Inhibition on TNF-α production in human mononuclear cells; assay type: cell-based; settings: TNF-α by ELISA, human MNC, 1 μg/ml LPS (E. coli), 37°C, 16 hours
Protocol: Blood was drawn from healthy volunteers with heparin. The mononuclear cell (MNC) fraction was obtained by gradient centrifugation (1800 rpm, 15 minutes), diluted with the same volume of RPMI-1640 culture medium, over Ficoll-Paque (Pharmacia LKB Biotechnology). MNC were washed twice with RPMI-1640. Then, MNC were resuspended in RPMI-1640 culture medium supplemented with 2 mM L-glutamine and 1% fetal bovine serum. MNC were incubated at 37pbC. for 16 hours in 96-well micro culture plate at a concentration of 3×10^5 cells/well with or without 1 μg/ml lipopolysaccharide (LPS) (from E. coli) and various amounts of test compound. At the end of incubation, the supernatant was obtained and its TNF-α active was measured by enzyme-linked immunosorbent assay (ELISA). ELISA was performed with TNF-α ELISA kit (Otsuka Pharmaceutical Co., Ltd.).

IC50 [1]: 16 nM
IC50 [2]: 24 nM
Structure (SMILES): CC(=O)Nc1ccc(/C=C/C(=O)Nc2cccc(-c3cccc(-n4c(=O)c(Cc5cccnc5)nc5cccnc54)c3)c2)cn1 [Test compound (a), 4-[3-[3-[(E)-3-(6-acetamido-3-pyridyl)acryloylamino]phenyl]phenyl]-2-(3-pyridylmethyl)-3-oxo-3,4-dihydropyrido[2,3-b]pyrazine]
